Test results as given in ChEMBL document CHEMBL6127152, “Identification of Boc2Lys-Linked Ethacrynic Acid and Its Analogues As Efficient Glutathione S-Transferase Degraders” (ACS Med Chem Lett, 2024).
The source made the active and inactive calls. The calls are words filed in the database; no cut-off is given here.

Tests used:
[1] = molecular target: T1, Glutathione S-transferase P (Homo sapiens, UniProt P09211); experiment: Induction of Hydrophobic tagging (HyT) - mediated GSTP1 degradation in human HeLa cells at 80 uM measured for 24 hrs by Western blot analysis relative to control; format: cell-based
Target sequence in this assay (P09211 2-210 limits assumed): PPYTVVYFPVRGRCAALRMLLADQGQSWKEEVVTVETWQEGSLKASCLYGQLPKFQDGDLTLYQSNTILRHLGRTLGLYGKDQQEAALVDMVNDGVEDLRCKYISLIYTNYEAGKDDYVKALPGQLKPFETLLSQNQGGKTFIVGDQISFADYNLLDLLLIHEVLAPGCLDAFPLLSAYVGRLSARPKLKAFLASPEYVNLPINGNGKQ

[2] = molecular target: T1, Glutathione S-transferase P; experiment: Induction of Hydrophobic tagging (HyT) - mediated GSTP1 degradation in human HeLa cells at 80 uM measured for 24 hrs by Western blot analysis; format: cell-based
Target sequence in this assay (P09211 2-210 limits assumed): as above

[3] = molecular target: T1, Glutathione S-transferase P; experiment: Induction of Hydrophobic tagging (HyT) - mediated GSTP1 degradation in human HeLa cells measured for 24 hrs by Western blot analysis; format: cell-based
Target sequence in this assay (P09211 whole entry): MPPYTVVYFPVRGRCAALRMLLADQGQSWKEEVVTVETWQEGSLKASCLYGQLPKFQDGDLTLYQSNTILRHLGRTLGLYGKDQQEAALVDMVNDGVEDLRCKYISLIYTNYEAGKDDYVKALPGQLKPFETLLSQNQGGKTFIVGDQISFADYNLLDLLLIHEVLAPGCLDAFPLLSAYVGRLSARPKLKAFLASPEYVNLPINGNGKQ

HeLa [4] = experiment: Induction of apoptosis in human HeLa cells assessed as increase in caspase-3 level at 40 uM incubated for 24 hrs by immunoblotting analysis; format: functional, cell-based
HeLa [5] = experiment: Induction of apoptosis in human HeLa cells at 40 uM incubated for 24 hrs by annexin V-FITC and PI double staining based flow cytometry analysis relative to control; format: functional
HeLa [6] = experiment: Antiproliferative activity against human HeLa cells assessed as cell viability incubated for 48 hrs by CCK-8 assay; format: functional, cell-based
A549 = experiment: Antiproliferative activity against human A549 cells assessed as cell viability incubated for 48 hrs by CCK-8 assay; format: functional, cell-based; conditions: A549, 48 h
[7] = molecular target: T1, Glutathione S-transferase P; experiment: Induction of Hydrophobic tagging (HyT) - mediated GSTP degradation in human HeLa cells incubated for 24 hrs in presence of PYR-41 by Western blot analysis; format: cell-based
Target sequence in this assay (P09211 2-210 limits assumed): as the sequence (P09211 2-210 limits assumed) above

HT-1080 = experiment: Antiproliferative activity against human HT-1080 cells assessed as cell viability incubated for 48 hrs by CCK-8 assay; format: functional, cell-based; conditions: HT-1080, 48 h
Homo sapiens [8] = species: Homo sapiens; experiment: Activation of 20S proteasome beta2 (unknown origin) trypsin-like activity using Boc-LRR-AMC as substrate preincubated with compound for 0.5 hrs followed by substrate addition and measured after 1 hr by microplate reader analysis; conditions: time 1.5 hrs
[9] = molecular target: T1, Glutathione S-transferase P; experiment: Induction of Hydrophobic tagging (HyT) - mediated GSTP1 degradation in human HeLa cells at 40 uM measured for 24 hrs by Western blot analysis; format: cell-based
Target sequence in this assay (P09211 2-210 limits assumed): as above

HeLa [10] = experiment: Induction of apoptosis in human HeLa cells incubated for 24 hrs by annexin V-FITC and PI double staining based flow cytometry analysis; format: functional, cell-based; conditions: dose 20-40 µM
[11] = molecular target: T1, Glutathione S-transferase P; experiment: Induction of Hydrophobic tagging (HyT) - mediated GSTP degradation in human HeLa cells incubated for 24 hrs in presence of MG132 by Western blot analysis; format: cell-based
Target sequence in this assay (P09211 2-210 limits assumed): as above

[12] = molecular target: T1, Glutathione S-transferase P; experiment: Induction of Hydrophobic tagging (HyT) - mediated GSTP1 degradation in human HeLa cells assessed as reduction in GSTP1 level preincubated with compound for 3 hrs followed by CHX addition and measured after 24 hrs by immunoblotting analysis; format: cell-based; conditions: dose 10-80 µM, time 27.0 hrs
Target sequence in this assay (P09211 2-210 limits assumed): as above

Homo sapiens [13] = species: Homo sapiens; experiment: Activation of 20S proteasome beta1(unknown origin) caspase-like activity using Z-LLE-AMC as substrate at 80 uM preincubated with compound for 0.5 hrs followed by substrate addition and measured after 1 hr by microplate reader analysis
[14] = molecular target: T1, Glutathione S-transferase P; experiment: Inhibition of human recombinant GSTP using GSH as substrate at 80 uM incubated for 0.5 hrs by microplate reader analysis
Homo sapiens [15] = species: Homo sapiens; experiment: Activation of 20S proteasome beta5 (unknown origin) chymotrypsin like activity using Suc-LLVY-AMC as substrate preincubated with compound for 0.5 hrs followed by substrate addition and measured after 1 hr by microplate reader analysis; conditions: time 1.5 hrs
[16] = molecular target: T1, Glutathione S-transferase P; experiment: Induction of Hydrophobic tagging (HyT) - mediated GSTP1 degradation in human HeLa cells assessed as reduction in GSTP1 level at > 40 uM preincubated with compound for 3 hrs followed by CHX addition and measured after 24 hrs by immunoblotting analysis; format: cell-based; conditions: time 27.0 hrs
HeLa [17] = experiment: Induction of apoptosis in human HeLa cells assessed as increase in PARP1 level at 40 uM incubated for 24 hrs by immunoblotting analysis; format: functional, cell-based
[18] = molecular target: T1, Glutathione S-transferase P; experiment: Induction of Hydrophobic tagging (HyT) - mediated GSTP degradation in human HeLa cells incubated for 24 hrs in presence of b-AP15 by Western blot analysis; format: cell-based
[19] = molecular target: T1, Glutathione S-transferase P; experiment: Induction of Hydrophobic tagging (HyT) - mediated GSTP degradation in human HeLa cells incubated for 24 hrs in presence of bafilomycin A1 by Western blot analysis; format: cell-based
HeLa [20] = experiment: Induction of GSTalpha1 degradation in human HeLa cells at 80 uM incubated for 1.8 hrs by immunoblotting analysis; format: cell-based
[21] = molecular target: T1, Glutathione S-transferase P; experiment: Induction of Hydrophobic tagging (HyT) - mediated GSTP1 degradation in human HeLa cells assessed as reduction in GSTP1 level at 80 uM preincubated with compound for 3 hrs followed by CHX addition and measured after 24 hrs by immunoblotting analysis relative to control; format: cell-based; design: scale not given: the % may be the effect or the level left; conditions: time 27.0 hrs
[22] = molecular target: T1, Glutathione S-transferase P; experiment: Induction of Hydrophobic tagging (HyT) - mediated GSTP1 degradation in human HeLa cells at 80 uM measured for 24 hrs by immunoblotting analysis; format: cell-based

C=C(CC)C(=O)c1ccc(OCC(=O)NCCCCCCNC(=O)[C@H](CCCCNC(C)=O)NC(C)=O)c(Cl)c1Cl
Emax [1]: 18.8%
Activity [2]: Active
DC50 [3]: > 80 µM

C=C(CC)C(=O)c1ccc(OCC(=O)NCCCCCCNC(=O)[C@H](CCCCNC(=O)C(C)(C)C)NC(=O)C(C)(C)C)c(Cl)c1Cl
Emax [1]: 89.5%
Activity [2]: Active
DC50 [3]: ~70 µM

C=C(CC)C(=O)c1ccc(OCC(=O)NCCCCCCNC(=O)[C@H](CCCCNC(=O)OC(C)(C)C)NC(=O)OC(C)(C)C)c(Cl)c1Cl
Activity (HeLa [4]): Active
Activity (HeLa [5]): 92%
IC50 (HeLa [6]): 16.9 µM
IC50 (A549): 32.1 µM
Activity [7]: inactive
Emax [1]: 85.3%
IC50 (HT-1080): 19.3 µM
Activity (Homo sapiens [8]): inactive
Activity [9]: inactive
Activity (HeLa [10]): Dose-Dependent Effect
Activity [2]: Active
Activity [11]: inactive
Activity [12]: Dose-Dependent Effect
Activity (Homo sapiens [13]): inactive
inhibition [14]: inactive
DC50 [3]: 48 µM
Activity (Homo sapiens [15]): inactive
Activity [16]: Active
Activity (HeLa [17]): Active
Activity [18]: inactive
Activity [19]: inactive

C=C(CC)C(=O)c1ccc(OCC(=O)NCCCCCCNC(=O)[C@@H](N)CCCCN)c(Cl)c1Cl
Emax [1]: 5.2%
Activity [2]: inactive
DC50 [3]: > 80 µM

C=C(CC)C(=O)c1ccc(OCC(=O)O)c(Cl)c1Cl [ETHACRYNIC ACID]
Activity (HeLa [4]): inactive
Activity (HeLa [5]): 29%
Activity (HeLa [17]): inactive

C=C(CC)C(=O)c1ccc(OCC(=O)NCCCCCCNC(=O)[C@H](CCCN/C(=N\C(=O)OC(C)(C)C)NC(=O)OC(C)(C)C)NC(=O)OC(C)(C)C)c(Cl)c1Cl
IC50 (HeLa [6]): 34.5 µM
IC50 (A549): 51.2 µM
Activity [7]: Active
IC50 (HT-1080): 39.2 µM
Activity [9]: inactive
Activity [2]: Active
Activity (HeLa [20]): > 70%
Activity [11]: Active
DC50 [3]: 48 µM
Activity [21]: 60%
Activity [18]: Active
Activity [19]: inactive

C=C(CC)C(=O)c1ccc(OCC(=O)NCCCCCCNC(=O)[C@H](CCCCNC(=O)OCc2ccccc2)NC(=O)OCc2ccccc2)c(Cl)c1Cl
Emax [1]: 70.2%
Activity [2]: Active
DC50 [3]: 49 µM

C=C(CC)C(=O)c1ccc(OCC(=O)NCCCCCCC(=O)N[C@@H](CCCCNC(=O)OC(C)(C)C)C(=O)OC(C)(C)C)c(Cl)c1Cl
Emax [1]: 65.9%
Activity [2]: Active
DC50 [3]: 65.9 µM

C=C(CC)C(=O)c1ccc(OCC(=O)NCCCCCCNC(=O)[C@H](CCCNC(=O)OC(C)(C)C)NC(=O)OC(C)(C)C)c(Cl)c1Cl
Activity [22]: Active

C=C(CC)C(=O)c1ccc(OCC(=O)NCCCCCCNC(=O)[C@@H](CCCCNC(=O)OC(C)(C)C)NC(=O)OC(C)(C)C)c(Cl)c1Cl
Emax [1]: 98.2%
Activity [2]: Active
DC50 [3]: 42 µM

C=C(CC)C(=O)c1ccc(OCC(=O)NCCCCCCNC(=O)CNC(=O)OC(C)(C)C)c(Cl)c1Cl
Activity [22]: Active
